From PMC10492809, “A Bischler-Napieralski and homo-Mannich sequence enables diversified syntheses of sarpagine alkaloids and analogues” (Nature Communications, 2023)
“And” between values parts separate entries of the source, which are not always exact repeats. Equal values may be shown once. Read-outs that look alike come from different tables or passages of the source.

Tests used:
Type in all cases: cell-based
MIA PaCa-2 = experiment: MTT cell viability assay, MIA PaCa-2
Procedure: (§1) All cell lines were cultured at 37 °C with 5% CO2 in a humidified incubator. HeLa cells were grown in MEM (Gibco) supplemented with 10% fetal bovine serum (FBS, Hyclone) and 1% penicillin/streptomycin (Gibco). MIA PaCa-2, MDA-MB-231, A549, MCF-7, A375 and BEAS-2B cells were grown in DMEM (Gibco) supplemented with 10% FBS and 1% penicillin/streptomycin. CT26, and HCT116 cells were grown in RPMI-1640 supplemented with 10% FBS and 1% penicillin/streptomycin. All cell lines were purchased from the National Collection of Authenticated Cell Cultures (China).
(§2) The antiproliferative activities of the prepared compounds against tested cell lines were evaluated using a standard (MTT)-based colorimetric assay. Cells were plated at a density of 3000 cells/well in 96-well plates and allowed to adhere overnight. Then cells were treated with varying concentrations of synthesized compounds for 72 h. At the end of treatment, 20 μL of thiazolyl blue tetrazolium bromide (MTT) solution (5 mg/mL) was added to each well. Cells were incubated for an additional 4 h at 37 °C and then the medium was removed and replaced with 200 μL of DMSO. The absorbance (OD490) was read on a microplate reader (SpectraMax i3x, Molecular Devices, US). In all experiments, three replicate wells were used for each drug concentration. Each assay was performed at least three times. The IC50 values were calculated by GraphPad Prism 9, which were the mean values derived from three independent experiments.

MDA-MB-231 = experiment: MTT cell viability assay, MDA-MB-231
Procedure: as §1, §2

Hela = experiment: MTT cell viability assay, Hela
Procedure: as §1, §2

A549 = experiment: MTT cell viability assay, A549
Procedure: as §1, §2

MCF-7 = experiment: MTT cell viability assay, MCF-7
Procedure: as §1, §2

CT26 = experiment: MTT cell viability assay, CT26
Procedure: as §1, §2

HCT 116 = experiment: MTT cell viability assay, HCT 116
Procedure: as §1, §2

A375 = experiment: MTT cell viability assay, A375
Procedure: as §1, §2

[1] = tested on: lung epithelial BEAS-2B cells; experiment: MTT cytotoxicity towards normal cells, BEAS-2B; conditions: for CC50: MTT, 72 h, cytotoxicity towards normal cells, mean of at least three independent experiments; for IC50: source data sheet, single values of three experiments
Procedure: as §1, §2

[2] = MTT cytotoxicity towards normal cells, BEAS-2B; conditions: human; for IC50 at 72 h: BEAS-2B lung epithelial cells (normal cells), source data sheet, single values of three experiments; for CC50 at 72 h: BEAS-2B lung epithelial cells, MTT, cytotoxicity towards normal cells, mean of at least three independent experiments
Procedure: as §1, §2

[3] = MTT, 72 h, mean of at least three independent experiments, read-out: IC50 MIA PaCa-2
[4] = source data sheet, single values of three experiments, read-out: MTT IC50 MIA PaCa-2
[5] = MTT, 72 h, mean of at least three independent experiments, read-out: IC50 MDA-MB-231
[6] = source data sheet, single values of three experiments, read-out: MTT IC50 MDA-MB-231
[7] = MTT, 72 h, mean of at least three independent experiments, read-out: IC50 Hela
[8] = source data sheet, single values of three experiments, read-out: MTT IC50 Hela
[9] = MTT, 72 h, mean of at least three independent experiments, read-out: IC50 A549
[10] = source data sheet, single values of three experiments, read-out: MTT IC50 A549
[11] = MTT, 72 h, mean of at least three independent experiments, read-out: IC50 MCF-7
[12] = source data sheet, single values of three experiments, read-out: MTT IC50 MCF-7
[13] = MTT, 72 h, mean of at least three independent experiments, read-out: IC50 CT26
[14] = source data sheet, single values of three experiments, read-out: MTT IC50 CT-26
[15] = MTT, 72 h, mean of at least three independent experiments, read-out: IC50 HCT 116
[16] = source data sheet, single values of three experiments, read-out: MTT IC50 HCT-116
[17] = MTT, 72 h, mean of at least three independent experiments, read-out: IC50 A375
[18] = source data sheet, single values of three experiments, read-out: MTT IC50 A375
[19] = Homo sapiens, MIA PaCa-2, 72 h, MTT, 72 h, mean of at least three independent experiments, read-out: IC50 MIA PaCa-2
[20] = Homo sapiens, MIA PaCa-2, source data sheet, single values of three experiments, read-out: MTT IC50 MIA PaCa-2
[21] = Homo sapiens, MDA-MB-231, 72 h, MTT, 72 h, mean of at least three independent experiments, read-out: IC50 MDA-MB-231
[22] = Homo sapiens, MDA-MB-231, source data sheet, single values of three experiments, read-out: MTT IC50 MDA-MB-231
[23] = Homo sapiens, HeLa, 72 h, MTT, 72 h, mean of at least three independent experiments, read-out: IC50 Hela
[24] = Homo sapiens, HeLa, source data sheet, single values of three experiments, read-out: MTT IC50 Hela
[25] = Homo sapiens, A549, 72 h, MTT, 72 h, mean of at least three independent experiments, read-out: IC50 A549
[26] = Homo sapiens, A549, source data sheet, single values of three experiments, read-out: MTT IC50 A549
[27] = Homo sapiens, MCF7, 72 h, MTT, 72 h, mean of at least three independent experiments, read-out: IC50 MCF-7
[28] = Homo sapiens, MCF7, source data sheet, single values of three experiments, read-out: MTT IC50 MCF-7
[29] = Mus musculus, CT26, 72 h, MTT, 72 h, mean of at least three independent experiments, read-out: IC50 CT26
[30] = Mus musculus, CT26, source data sheet, single values of three experiments, read-out: MTT IC50 CT-26
[31] = Homo sapiens, HCT-116, 72 h, MTT, 72 h, mean of at least three independent experiments, read-out: IC50 HCT 116
[32] = Homo sapiens, HCT-116, source data sheet, single values of three experiments, read-out: MTT IC50 HCT-116
[33] = Homo sapiens, A-375, 72 h, MTT, 72 h, mean of at least three independent experiments, read-out: IC50 A375
[34] = Homo sapiens, A-375, source data sheet, single values of three experiments, read-out: MTT IC50 A375

SMILES | IC50 (MIA PaCa-2; [4]) | IC50 (MDA-MB-231; [6]) | IC50 (Hela; [8]) | IC50 (A549; [10]) | IC50 (MCF-7; [12]) | IC50 (CT26; [14]) | IC50 (HCT 116; [16]) | IC50 (A375; [18]) | IC50 (MIA PaCa-2; [19]) | IC50 (MIA PaCa-2; [20]) | IC50 (MDA-MB-231; [21]) | IC50 (MDA-MB-231; [22]) | IC50 (Hela; [23]) | IC50 (Hela; [24]) | IC50 (A549; [25]) | IC50 (A549; [26]) | IC50 (MCF-7; [27]) | IC50 (MCF-7; [28]) | IC50 (CT26; [29]) | IC50 (CT26; [30]) | further results
C=C=C1CN2[C@H]3C[C@H]1[C@H](C=O)[C@@H]2Cc1c3n(S(=O)(=O)c2ccc(C)cc2)c2cccc(Br)c12 [Compound 15ae] | 39.9 µM and 44.1 µM and 36.8 µM | 25.1 µM and 24.3 µM and 26.8 µM | 34.5 µM and 31.3 µM and 30.4 µM | 44.1 µM and 40.9 µM and 43.6 µM | 35.2 µM and 29.7 µM and 31.4 µM | 32.8 µM and 27.5 µM and 30 µM | 30 µM and 26.1 µM and 27.9 µM | 23.6 µM and 17.1 µM and 20.5 µM | – | – | – | – | – | – | – | – | – | – | – | – | IC50 (MIA PaCa-2; [3]): 40.3 µM; IC50 (MDA-MB-231; [5]): 25.4 µM; IC50 (Hela; [7]): 32.1 µM; IC50 (A549; [9]): 42.9 µM; IC50 (MCF-7; [11]): 32.1 µM; IC50 (CT26; [13]): 30.1 µM; IC50 (HCT 116; [15]): 28 µM; IC50 (A375; [17]): 20.4 µM; CC50 [1]: > 100 µM; IC50 [1]: > 100 µM
C=C=C1CN2[C@H]3C[C@H]1[C@H](C(=O)C=C)[C@@H]2Cc1c3n(S(=O)(=O)c2ccc(C)cc2)c2ccccc12 [Compound 15aq] | 22.2 µM and 19.5 µM and 18.9 µM | 10.1 µM and 8.05 µM and 6.22 µM | 12.4 µM and 9.52 µM and 10.6 µM | 22.2 µM and 18.2 µM and 17.1 µM | 24.3 µM and 27.2 µM and 22.8 µM | 15.9 µM and 17.2 µM and 14.1 µM | 12.2 µM and 8.29 µM and 10.3 µM | 9.41 µM and 6.42 µM and 6.61 µM | – | – | – | – | – | – | – | – | – | – | – | – | IC50 (MIA PaCa-2; [3]): 20.2 µM; IC50 (MDA-MB-231; [5]): 8.12 µM; IC50 (Hela; [7]): 10.9 µM; IC50 (A549; [9]): 19.2 µM; IC50 (MCF-7; [11]): 24.8 µM; IC50 (CT26; [13]): 15.7 µM; IC50 (HCT 116; [15]): 10.3 µM; IC50 (A375; [17]): 7.48 µM; CC50 [1]: > 100 µM; IC50 [1]: > 100 µM
C=C=C1CN2[C@H]3C[C@H]1[C@H](C=O)[C@@H]2Cc1c3n(S(=O)(=O)c2ccc(C)cc2)c2cc(Br)ccc12 [Compound 15ag] | 21.3 µM and 22 µM | 9.71 µM and 8.01 µM | 9.92 µM and 7.92 µM | 15.3 µM and 19.1 µM | 21.6 µM and 18.5 µM | 15.8 µM and 16.1 µM | 13 µM and 10.3 µM | 7.82 µM and 8.4 µM | 22.8 µM | 25 µM | 8.59 µM | 8.05 µM | 9.89 µM | 11.8 µM | 18.2 µM | 20.1 µM | 20.9 µM | 22.6 µM | 17.3 µM | 20 µM | IC50 (HCT 116; [31]): 12.4 µM; IC50 (HCT 116; [32]): 14 µM; IC50 (A375; [33]): 8.88 µM; IC50 (A375; [34]): 10.4 µM; IC50 at 72 h [2]: > 100 µM; CC50 at 72 h [2]: > 100 µM
C=C=C1CN2[C@H]3C[C@H]1[C@H](C=O)[C@@H]2Cc1c3n(S(=O)(=O)c2ccc(C)cc2)c2ccc(Br)cc12 [Compound 15af] | 23 µM and 17 µM | 7.05 µM and 4.11 µM | 7.52 µM and 8.35 µM | 12.5 µM and 14.9 µM | 20.1 µM and 19.2 µM | 18.8 µM and 14.8 µM | 8.41 µM and 9.85 µM | 9.41 µM and 6.25 µM | 20.2 µM | 20.5 µM | 5.39 µM | 5.02 µM | 8.56 µM | 9.81 µM | 14.8 µM | 17 µM | 18.1 µM | 15 µM | 15.8 µM | 13.8 µM | IC50 (HCT 116; [31]): 9.98 µM; IC50 (HCT 116; [32]): 11.7 µM; IC50 (A375; [33]): 7.51 µM; IC50 (A375; [34]): 6.87 µM; IC50 at 72 h [2]: > 100 µM; CC50 at 72 h [2]: > 100 µM
C=C=C1CN2[C@H]3C[C@H]1[C@H](C=O)[C@@H]2Cc1c3n(S(=O)(=O)c2ccc(C)cc2)c2cc(F)ccc12 [Compound 15aj] | 22.1 µM and 26 µM | 11.5 µM and 14.1 µM | 16.8 µM and 18.3 µM | 27.4 µM and 22.6 µM | 28.1 µM and 29.2 µM | 23.2 µM and 26 µM | 20.3 µM and 16.2 µM | 11.2 µM and 13.4 µM | 24.1 µM | 24.2 µM | 14 µM | 16.4 µM | 18.8 µM | 21.3 µM | 26.2 µM | 28.5 µM | 30.3 µM | 33.5 µM | 24.3 µM | 23.7 µM | IC50 (HCT 116; [31]): 18.9 µM; IC50 (HCT 116; [32]): 20.1 µM; IC50 (A375; [33]): 13.4 µM; IC50 (A375; [34]): 15.7 µM; IC50 at 72 h [2]: > 100 µM; CC50 at 72 h [2]: > 100 µM
